Structures can show the parent of a compound that is named as a salt.

Sequence of postsynaptic muscarinic cholinergic receptors (bladder detrusor muscle) (H0W1Z3 1-590): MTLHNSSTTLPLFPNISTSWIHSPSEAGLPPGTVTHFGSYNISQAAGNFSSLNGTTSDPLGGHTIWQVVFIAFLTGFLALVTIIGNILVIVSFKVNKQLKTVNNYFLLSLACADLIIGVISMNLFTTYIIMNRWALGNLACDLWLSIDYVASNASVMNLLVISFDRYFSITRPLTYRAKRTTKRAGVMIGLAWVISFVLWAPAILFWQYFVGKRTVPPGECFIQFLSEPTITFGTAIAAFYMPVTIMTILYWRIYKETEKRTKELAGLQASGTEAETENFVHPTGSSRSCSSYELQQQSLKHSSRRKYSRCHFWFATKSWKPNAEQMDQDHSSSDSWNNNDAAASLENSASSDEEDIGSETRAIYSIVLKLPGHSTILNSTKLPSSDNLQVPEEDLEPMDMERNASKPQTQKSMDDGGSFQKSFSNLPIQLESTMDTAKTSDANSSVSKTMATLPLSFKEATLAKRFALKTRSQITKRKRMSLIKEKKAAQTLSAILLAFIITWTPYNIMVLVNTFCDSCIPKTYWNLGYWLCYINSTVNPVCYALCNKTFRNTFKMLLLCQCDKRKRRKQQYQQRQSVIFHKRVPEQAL

One test has as its system bladder contraction (PvesP).
Assay: not given
As to conditions: guinea pig, in vivo, iv.
As to `CN1CCN(CC(=O)C(O)(c2ccccc2)C2CCCCC2)CC1` (centres unmarked) [1-Cyclohexyl-1-hydroxy-3-(4-methyl-1-piperazinyl)-1-phenyl-2-propanone], the “T1/2 for recovery toward control level of the PvesP contraction strength parameter” value was determined as 3.6 ± 0.3 h.

The next test has as its target postsynaptic muscarinic cholinergic receptors (bladder detrusor muscle) (Cavia porcellus, UniProt H0W1Z3). As to the kind of experiment: cell-based. Details: species or system guinea pig.
Settings: not given
`O=C(CN1CCNCC1)C(O)(c1ccccc1)C1CCC1` (centres unmarked) [1-Cyclobutyl-1-hydroxy-1-phenyl-3-piperazinyl-2-propanone Dihydrochloride] gave a Kb of 86 nM.
`C=CCN1CCN(CC(=O)C(O)(c2ccccc2)C2CCC2)CC1` (centres unmarked) [1-Cyclobutyl-1-hydroxy-3-(4-allyl-1-piperazinyl)-1-phenyl-2-propanone Dihydrochloride] returned a Kb of 65 nM.
On the same count and under the same terms, the same measure for `O=C(CN1CCN(C(c2ccccc2)c2ccccc2)CC1)C(O)(c1ccccc1)C1CCC1` (centres unmarked) [1-Cyclobutyl-1-hydroxy-3-(4-benzyhydryl-1-piperazinyl)-1-phenyl-2-propanoneDihydrochloride]: “No Effect at 1 μM”; for `O=C(CN1CCN(C2CCC2)CC1)C(O)(c1ccccc1)C1CCC1` (centres unmarked) [1-Cyclobutyl-1-hydroxy-3-(4-cyclobutyl-1-piperazinyl)-1-phenyl-2-propanone Dihydrochloride]: 230 nM.
The same measure, in the same setting: the same measure for `CCOC(=O)N1CCN(CC(=O)C(O)(c2ccccc2)C2CCC2)CC1.Cl` (centres unmarked) [1-Cyclobutyl-1-hydroxy-3-(4-ethoxycarbonyl-1-piperazinyl)-1-phenyl-2-propanone Hydrochloride]: “No Effect at 1 μM”; for `CN1CCN(CC(=O)C(O)(c2ccccc2)C2CCC2)CC1` (centres unmarked) [1-Cyclobutyl-1-hydroxy-3-(4-methyl-1-piperazinyl)-1-phenyl-2-propanone Dihydrochloride]: 24.9 nM; for `Cl.Cl.O=C(CN1CCN(c2ccccc2)CC1)C(O)(c1ccccc1)C1CCC1` (centres unmarked) [1-Cyclobutyl-1-hydroxy-3-(4-phenyl-1-piperazinyl)-1-phenyl-2-propanone Dihydrochloride]: “No Effect at 1 μM”.
In turn, `CCCN1CCN(CC(=O)C(O)(c2ccccc2)C2CCC2)CC1` (centres unmarked) [1-Cyclobutyl-1-hydroxy-3-(4-propyl-1-piperazinyl)-1-phenyl-2-propanone Dihydrochloride] displayed a Kb of 673 nM.
In turn, `O=C(CN1CCN(CC(=O)C(O)(c2ccccc2)C2CCC2)CC1)N1CCCC1` (centres unmarked) [1-Cyclobutyl-1-hydroxy-3-(4-pyrrolidino-carbonylmethyl-1-piperazinyl)-1-phenyl-2-propanone Dihydrochloride] yielded a Kb of 210 nM.
`CCOc1ccccc1N1CCN(CC(=O)C(O)(c2ccccc2)C2CCC2)CC1.Cl.Cl` (centres unmarked) [1-Cyclobutyl-1-hydroxy-3-[4-(2-ethoxyphenyl)-1-piperazinyl]-1-phenyl-2-propanone Dihydrochloride]: the Kb entry was “No Effect at 1 μM”.
In turn, `O=C(CN1CCN(CCO)CC1)C(O)(c1ccccc1)C1CCC1` (centres unmarked) [1-Cyclobutyl-1-hydroxy-3-[4-(2-hydroxyethyl)-1-piperazinyl]-1-phenyl-2-propanone Dihydrochloride] returned a Kb of 201 nM.
Consider `COc1ccccc1N1CCN(CC(=O)C(O)(c2ccccc2)C2CCC2)CC1.Cl.Cl` (centres unmarked) [1-Cyclobutyl-1-hydroxy-3-[4-(2-methoxyphenyl)-1-piperazinyl]-1-phenyl-2-propanone Dihydrochloride], for which the Kb result was “No Effect at 1 μM”.
The compound `C=C(C)CN1CCN(CC(=O)C(O)(c2ccccc2)C2CCC2)CC1` (centres unmarked) [1-Cyclobutyl-1-hydroxy-3-[4-(2-methyl-2-propenyl)-1-piperazinyl]1-phenyl-2-propanone Dihydrochloride] had a Kb of 100 nM.
The compound `C=CCCN1CCN(CC(=O)C(O)(c2ccccc2)C2CCC2)CC1` (centres unmarked) [1-Cyclobutyl-1-hydroxy-3-[4-(3-butenyl)-1-piperazinyl]-1-phenyl-2-propanoneDihydrochloride] had a Kb of 35 nM.
Still for that read-out and setting: the figure for `CC(C)=CCN1CCN(CC(=O)C(O)(c2ccccc2)C2CCC2)CC1` (centres unmarked) [1-Cyclobutyl-1-hydroxy-3-[4-(3-methyl-2-butenyl)-1-piperazinyl]-1-phenyl-2-propanone Dihydrochloride] is 19 nM; for `O=C(CN1CCN(Cc2ccc(Cl)cc2)CC1)C(O)(c1ccccc1)C1CCC1` (centres unmarked) [1-Cyclobutyl-1-hydroxy-3-[4-(4-chlorobenzyl)-]1-piperazinyl]-1-phenyl-2-propanone Dihydrochloride] it is 16 nM; for `Cc1ccc(CN2CCN(CC(=O)C(O)(c3ccccc3)C3CCC3)CC2)cc1` (centres unmarked) [1-Cyclobutyl-1-hydroxy-3-[4-(4-methylbenzyl)-]1-piperazinyl]-1-phenyl-2-propanone Dihydrochloride] it is 9.1 nM.
In turn, `O=C(CN1CCN(Cc2ccc([N+](=O)[O-])cc2)CC1)C(O)(c1ccccc1)C1CCC1` (centres unmarked) [1-Cyclobutyl-1-hydroxy-3-[4-(4-nitrobenzyl)-1-piperazinyl]-1-phenyl-2-propanone Dihydrochloride] returned a Kb of 83 nM.
Still for that read-out and setting: the same measure for `Cl.Cl.O=C(CN1CCN(c2ccc([N+](=O)[O-])cc2)CC1)C(O)(c1ccccc1)C1CCC1` (centres unmarked) [1-Cyclobutyl-1-hydroxy-3-[4-(4-nitrophenyl)-1-piperazinyl]-1-phenyl-2-propanone Dihydrochloride]: “No Effect at 1 μM”.
For `C=CCN1CCN(CC(=O)C(O)(c2ccccc2)C2CCCCC2)CC1` (centres unmarked) [1-Cyclohexyl-1-hydroxy-3-(4-allyl-1-piperazinyl)-1-phenyl-2-propanone Dihydrochloride], the Kb came out at 26 nM.
The same measure, in the same setting: the figure for `CN1CCN(CC(=O)C(O)(c2ccccc2)C2CCCCC2)CC1` (centres unmarked) [1-Cyclohexyl-1-hydroxy-3-(4-methyl-1-piperazinyl)-1-phenyl-2-propanone] is 25.9 ± 5.3 nM; for `O=C(CN1CCN(CCO)CC1)C(O)(c1ccccc1)C1CCCCC1` (centres unmarked) [1-Cyclohexyl-1-hydroxy-3-[4-(2-hydroxyethyl)-1-piperazinyl]-1-phenyl-2-propanone Dihydrochloride] it is 96 nM.

(Values after patent publication US5001160A (priority 1989, dated 1991).)
